Assay results from ChEMBL document CHEMBL1201862, “PubChem BioAssay data set” (2004).
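1) Cells in 96-well plates. 2) Compound, 48 h, 5 concentrations. 3) Linear interpolation between surrounding doses. 4) Unreached endpoint = highest concentration. GI50: concentration for 50% inhibition of growth.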 Calls of active or inactive are those of the source. Cut-off read from the data, not from the text of the source: active = GI50 up to about 1.1 µM and inactive = higher.

Columns and labels:
Assay in all cases: NCI-60 cell line screen, 48 h
OVCAR-8 = tested on: OVCAR-8
A498 = tested on: A498
LXFL 529 = tested on: LXFL 529
NCI-H23 = tested on: NCI-H23
DLD-1 = tested on: DLD-1
SF-295 = tested on: SF-295
XF498 = tested on: XF498
NCI-H460 = tested on: NCI-H460
SK-MEL-28 = tested on: SK-MEL-28
HCT-15 = tested on: HCT-15
DMS-114 = tested on: DMS-114
MOLT-4 = tested on: MOLT-4
SK-MEL-2 = tested on: SK-MEL-2
U-251 = tested on: U-251
OVCAR-3 = tested on: OVCAR-3
HOP-18 = tested on: HOP-18
MDA-MB-435 = tested on: MDA-MB-435
PC-3 = tested on: PC-3
NCI/ADR-RES = tested on: NCI/ADR-RES
MDA-MB-231 = tested on: MDA-MB-231

| Compound | GI50 (OVCAR-8) | GI50 (A498) | GI50 (LXFL 529) | GI50 (NCI-H23) | GI50 (DLD-1) | GI50 (SF-295) | GI50 (XF498) | GI50 (NCI-H460) | GI50 (SK-MEL-28) | GI50 (HCT-15) [µM] | GI50 (DMS-114) | GI50 (MOLT-4) | GI50 (SK-MEL-2) | GI50 (U-251) | GI50 (OVCAR-3) | GI50 (HOP-18) | GI50 (MDA-MB-435) | GI50 (PC-3) | GI50 (NCI/ADR-RES) | GI50 (MDA-MB-231) |
| --- | --- | --- | --- | --- | --- | --- | --- | --- | --- | --- | --- | --- | --- | --- | --- | --- | --- | --- | --- | --- |
| O=C(Nc1ccc(F)cc1)C(=O)C(C(=O)c1ccccc1F)C1OC(=O)c2ccccc21 (configuration not stated) | 43 µM (inactive) | > 100 µM (inactive) | 34.8 µM (inactive) | > 100 µM (inactive) | 76.4 µM (inactive) | 68.5 µM (inactive) | 50.8 µM (inactive) | 47 µM (inactive) | 87.3 µM (inactive) | 23.6 | 45.5 µM (inactive) | 14.9 µM (inactive) | 54.1 µM (inactive) | 24 µM (inactive) | – | – | – | – | – | – |
| CCOCc1cc(=O)c2c(O)cc3c(c2o1)CCC(C)(C)O3 | > 100 µM (inactive) | > 100 µM (inactive) | > 100 µM (inactive) | > 100 µM (inactive) | > 100 µM (inactive) | > 100 µM (inactive) | – | > 100 µM (inactive) | > 100 µM (inactive) | > 100 | > 100 µM (inactive) | > 100 µM (inactive) | > 100 µM (inactive) | > 100 µM (inactive) | > 100 µM (inactive) | > 100 µM (inactive) | – | – | – | – |
| CCOC(=O)c1cccc(NC(=O)CBr)c1 | 1.11 µM (active) | 3.43 µM (inactive) | – | 0.942 µM (active) | – | 4.36 µM (inactive) | – | 0.927 µM (active) | 2.62 µM (inactive) | 1.28 | – | 0.223 µM (active) | 1.56 µM (inactive) | 0.581 µM (active) | 1.39 µM (inactive) | – | 1.1 µM (active) | 1.55 µM (inactive) | 2.04 µM (inactive) | 1.82 µM (inactive) |
| CCC(=O)c1c(NOC2OCC(OC(C)=O)C(OC(C)=O)C2OC(C)=O)nc(OC)n(C)c1=O (configuration not stated) | > 100 µM (inactive) | > 100 µM (inactive) | > 100 µM (inactive) | > 100 µM (inactive) | > 100 µM (inactive) | > 100 µM (inactive) | > 100 µM (inactive) | > 100 µM (inactive) | > 100 µM (inactive) | > 100 | > 100 µM (inactive) | > 100 µM (inactive) | – | > 100 µM (inactive) | > 100 µM (inactive) | < 0.01 µM (active) | – | – | – | – |
| N#C[C@@H](c1nc2ccccc2s1)c1ncccc1[N+](=O)[O-] | 9.06 µM (inactive) | 10.8 µM (inactive) | – | 3.7 µM (inactive) | – | 4.1 µM (inactive) | – | 5.62 µM (inactive) | > 10 µM (inactive) | 7.13 | – | 9.12 µM (inactive) | 4.12 µM (inactive) | 3.48 µM (inactive) | 2.48 µM (inactive) | – | 13.4 µM (inactive) | 5.16 µM (inactive) | 6.46 µM (inactive) | 7.83 µM (inactive) |
| Clc1ccc(N/N=C(\c2ccccc2)c2ccccn2)nc1 | < 0.01 µM (active) | 49.8 µM (inactive) | – | 0.0526 µM (active) | – | 0.323 µM (active) | – | – | 2.67 µM (inactive) | < 0.0183 | – | < 0.01 µM (active) | 3.85 µM (inactive) | 0.031 µM (active) | < 0.0121 µM (active) | – | 0.627 µM (active) | 0.0463 µM (active) | < 0.0165 µM (active) | < 0.0187 µM (active) |
| Cc1cc(C)c(C2=NO[C@@H]3[C@H]2C(=O)C=C2N(Cc4ccccc4)CCO[C@@]23O)c(C)c1 | > 100 µM (inactive) | > 100 µM (inactive) | – | > 100 µM (inactive) | > 100 µM (inactive) | > 100 µM (inactive) | > 100 µM (inactive) | > 100 µM (inactive) | > 100 µM (inactive) | > 100 | – | > 100 µM (inactive) | > 100 µM (inactive) | > 100 µM (inactive) | > 100 µM (inactive) | > 100 µM (inactive) | – | – | > 100 µM (inactive) | – |
| CC1CC=CC(O)C1 (configuration not stated) | > 100 µM (inactive) | > 100 µM (inactive) | – | > 100 µM (inactive) | > 100 µM (inactive) | > 100 µM (inactive) | > 100 µM (inactive) | > 100 µM (inactive) | > 100 µM (inactive) | > 100 | > 100 µM (inactive) | > 100 µM (inactive) | > 100 µM (inactive) | > 100 µM (inactive) | > 100 µM (inactive) | > 100 µM (inactive) | – | – | > 100 µM (inactive) | – |
| C[C@H](C(=O)O)C(=O)NC(=O)N(Cc1ccccc1)N=O | > 100 µM (inactive) | > 100 µM (inactive) | > 100 µM (inactive) | – | > 100 µM (inactive) | > 100 µM (inactive) | > 100 µM (inactive) | > 100 µM (inactive) | > 100 µM (inactive) | > 100 | > 100 µM (inactive) | > 100 µM (inactive) | > 100 µM (inactive) | > 100 µM (inactive) | > 100 µM (inactive) | 0.0525 µM (active) | – | – | – | – |
| COC(=O)/C=C\n1nc(Br)c(=O)[nH]c1=O | > 100 µM (inactive) | > 100 µM (inactive) | – | > 100 µM (inactive) | – | – | – | > 100 µM (inactive) | > 100 µM (inactive) | 85.7 | – | – | > 100 µM (inactive) | > 100 µM (inactive) | > 100 µM (inactive) | – | > 100 µM (inactive) | > 100 µM (inactive) | > 100 µM (inactive) | > 100 µM (inactive) |
| O=S(O)c1cc(Cl)cc(Cl)c1O | – | > 100 µM (inactive) | > 100 µM (inactive) | > 100 µM (inactive) | > 100 µM (inactive) | – | > 100 µM (inactive) | > 100 µM (inactive) | > 100 µM (inactive) | – | 80.9 µM (inactive) | > 100 µM (inactive) | > 100 µM (inactive) | > 100 µM (inactive) | > 100 µM (inactive) | – | – | – | – | – |
| CN(C)CCNC(=O)c1ccc(Cl)c2ccc(-c3ccccc3)nc12 | 2.57 µM (inactive) | 5.16 µM (inactive) | – | 5.38 µM (inactive) | 2.92 µM (inactive) | 2.96 µM (inactive) | 3.16 µM (inactive) | 2.07 µM (inactive) | 4.27 µM (inactive) | 3.42 | – | 1.82 µM (inactive) | 7.67 µM (inactive) | 2.93 µM (inactive) | 5.4 µM (inactive) | 3.26 µM (inactive) | – | – | 2.42 µM (inactive) | – |
| CC(C)C(=O)N1C(=O)O[C@@H](c2ccccc2)[C@H]1C | > 100 µM (inactive) | > 100 µM (inactive) | > 100 µM (inactive) | > 100 µM (inactive) | > 100 µM (inactive) | > 100 µM (inactive) | > 100 µM (inactive) | > 100 µM (inactive) | > 100 µM (inactive) | > 100 | > 100 µM (inactive) | > 100 µM (inactive) | > 100 µM (inactive) | > 100 µM (inactive) | > 100 µM (inactive) | > 100 µM (inactive) | – | – | – | – |
| c1ccc(Nc2nnc(CCCCCCCCc3nnc(Nc4ccccc4)o3)o2)cc1 | > 100 µM (inactive) | > 100 µM (inactive) | – | > 100 µM (inactive) | – | > 100 µM (inactive) | – | > 100 µM (inactive) | > 100 µM (inactive) | > 100 | – | > 100 µM (inactive) | > 100 µM (inactive) | > 100 µM (inactive) | > 100 µM (inactive) | – | > 100 µM (inactive) | > 100 µM (inactive) | > 100 µM (inactive) | > 100 µM (inactive) |
| O=S(O)c1cc(Cl)cc(Cl)c1OCc1ccccc1 | – | > 100 µM (inactive) | > 100 µM (inactive) | > 100 µM (inactive) | > 100 µM (inactive) | – | > 100 µM (inactive) | > 100 µM (inactive) | > 100 µM (inactive) | – | > 100 µM (inactive) | > 100 µM (inactive) | > 100 µM (inactive) | > 100 µM (inactive) | > 100 µM (inactive) | – | – | – | – | – |
| COCC1N=C(c2cc(OC)c(OC)c(OC)c2-c2cc3c(cc2[C@@H](C)O)OCO3)O[C@H]1c1ccccc1 (some centres not stated) | > 74.5 µM (inactive) | > 94.4 µM (inactive) | – | 51.6 µM (inactive) | > 89.7 µM (inactive) | 57.7 µM (inactive) | – | > 71.8 µM (inactive) | > 68.4 µM (inactive) | > 100 | – | > 100 µM (inactive) | > 53.3 µM (inactive) | 53.2 µM (inactive) | 50 µM (inactive) | > 86.5 µM (inactive) | – | – | 40.2 µM (inactive) | – |
| COc1cc(C2c3cc4c(cc3[C@@H](Nc3cccc([N+](=O)[O-])c3)C3COC(=O)[C@H]23)OCO4)cc(OC)c1O (some centres not stated) | 2.51 µM (inactive) | 1.46 µM (inactive) | – | 1.55 µM (inactive) | 1.93 µM (inactive) | 1.36 µM (inactive) | 3.13 µM (inactive) | 0.02 µM (active) | 5.36 µM (inactive) | 1.39 | 2.7 µM (inactive) | 0.29 µM (active) | 5.4 µM (inactive) | 1.94 µM (inactive) | 5.69 µM (inactive) | 3.37 µM (inactive) | – | – | 8.07 µM (inactive) | – |
| OCC1C2C=CC(O2)[C@H]1CO (some centres not stated) | > 100 µM (inactive) | > 100 µM (inactive) | > 100 µM (inactive) | – | > 100 µM (inactive) | > 100 µM (inactive) | – | > 100 µM (inactive) | > 100 µM (inactive) | > 100 | 92.7 µM (inactive) | > 100 µM (inactive) | – | > 100 µM (inactive) | > 100 µM (inactive) | > 100 µM (inactive) | – | – | – | – |
| COc1ccc2cc3[n+](cc2c1OC)CCc1cc2c(cc1-3)OCO2 [BERBERINE CHLORIDE] | 12.7 µM (inactive) | 95.9 µM (inactive) | – | 7.35 µM (inactive) | – | – | 7.82 µM (inactive) | 12.2 µM (inactive) | 22.2 µM (inactive) | – | 4.23 µM (inactive) | – | 25.3 µM (inactive) | – | – | 106 µM (inactive) | 12.8 µM (inactive) | 26.9 µM (inactive) | – | 36.1 µM (inactive) |
